Entries after “also recorded” stand apart in the source; their conditions may differ.
Key:
[1] = test system: C57BL/6 mice; assay: Conditioned place aversion (CPA) after naloxone-precipitated withdrawal; type: in vivo; settings: for CPA: 0.1 mg/kg i.p. as printed
Description: Adult male C57BL/6 mice (7-14 weeks old) were used for conditioned place aversion experiments (CPA). Animals were group housed under reverse light-dark cycle with ad libitum access to food and water and were randomly allocated to different test groups. All procedures were approved by the University of Calgary and Washington University Animal Care Committees and are in accordance with the guidelines of the Canadian Council on Animal Care and the US National Institutes of Health Guide for the Care of Use of Laboratory Animals.
Place conditioning was performed in a custom-built clear plexiglass apparatus (28×28×19 cm) divided into two conditioning chambers distinct in tactile and visual cues. All locomotor behaviours were recorded using monochrome GigE cameras and quantified offline using EthoVision XT 11 software (Noldus). The CPA score was calculated by subtracting time spent in the conditioned chamber during baseline (pre-test) from time spent in the same chamber postconditioning. Mice were placed in a two-chamber conditioning apparatus and allowed free access to both chambers for 15 min to assess baseline preference. Mice were treated with escalating doses of morphine, control animals received equivalent volumes of 0.9% sterile saline. Two hours after the final morphine or saline injection on day 5, mice were injected with naloxone and confined to one side of the conditioning apparatus for 30 min. The conditioned place aversion (CPA) test occurred 1 and 7 days post-conditioning, where mice were allowed free access to the conditioning apparatus for 15 min. […]
Unpaired t tests were applied to compare differences between two groups, one-way ANOVA with Bonferroni post hoc tests were applied to compare differences between three or more groups. […] All data are expressed as mean±SEM. […] After assessing the normality of sample data using Shapiro-Wilk test, statistical significance was determined by two-way repeated-measures ANOVA followed by two-tailed Sidak post hoc test. All data were presented as mean±SEM and analyzed using GraphPad Prism 9 (GraphPad Software, Inc., California).

[2] = test system: Long Evans rats; assay: Morphine self-administration, extinction and cue-induced reinstatement (opioid seeking); type: in vivo
Procedure: Adult (8 to 10 weeks old at the beginning of the experiments) wild-type male and female Long Evans rats (250-350g) were used. Animals were group housed prior to jugular vein catheter implant surgery with two to three animals per cage on a 12/12 hours dark/light cycle (lights on at 7:00 AM). Rats were acclimated to the animal facility holding rooms for at least 7 days before any manipulation. After catheter implantation, animals were single housed to prevent damage to the harnesses. All experiments were performed during the light cycle. Rats received food and water ad libitum until 2 days prior to starting the behavioral studies, when food restriction (16 g of rat chow per day) started and continued until the end of the experiments.
All surgeries were performed under isoflurane (2.5/3 MAC) anesthesia using sterile aseptic techniques. For intravenous (IV) self-administration (SA), animals were implanted with sterile catheters in the right jugular vein and connected to a harness placed over the torso. The harness allowed for minimal stress while connecting and disconnecting the animal from infusion lines. The catheter was kept patent by daily infusions of gentamicin mixture (1.33 mg/ml).
Equipment: Rat self-administration was conducted using operant-conditioning chambers (Med Associates) equipped with two retractable levers with a food magazine connected to a food pellet dispenser between them. Two cue lights were positioned above the levers, and one house light was positioned on the top left-hand wall. During self-administration sessions both levers (correct and incorrect lever) were extended out with white cue light turned on only above the correct lever. […]
All experiments were performed at least twice, including each treatment condition to prevent an unspecific day/condition effect. […] All data are expressed as mean±SEM. […] After assessing the normality of sample data using Shapiro-Wilk test, statistical significance was determined by two-way repeated-measures ANOVA followed by two-tailed Sidak post hoc test. Data was analyzed using GraphPad Prism 8.1.0.

With CCCN(CCC)S(=O)(=O)c1ccc(C(O)(C(F)(F)F)C(F)(F)F)cc1 [Compound 1, 4-(1,1,1,3,3,3-hexafluoro-2-hydroxypropan-2-yl)-N,N-dipropylbenzenesulfonamide] the CPA ([1]; 1 day after naloxone-precipitated withdrawal) was “significantly less CPA”, the CPA ([1]; 1 day and 7 days after naloxone-precipitated withdrawal) was “significantly less CPA” and the “CPA score (aversion to the naloxone-paired chamber)” value ([1]; 0.5 mg/kg i.p., morphine-dependent mice, vs vehicle) was “significant reduction in aversion”. For the same compound, the “Extinction of morphine seeking behaviour (lever pressing)” value ([2]; 0.5 mg/kg i.p. 1 hour prior to each extinction session, vs saline) was “did not show a reduction in time required for extinction; also recorded: no difference was observed”, the “Lever presses (morphine seeking) during reinstatement, all animals” value ([2]; 0.5 mg/kg i.p. during extinction, before reinstatement, or both, vs saline) was “significant reduction in the number of lever presses; also recorded: rescued” and the “Lever presses (morphine seeking) during reinstatement, female rats” value ([2]; 0.5 mg/kg i.p. during extinction, first day of reinstatement, or both, females) was “decreased the number of lever presses; also recorded: reversed”.
